The source of these data is the supplement of paper PMC10949913.

Holding throughout (details): 48 h
Assay [1] has as its system CU-ACC2. The assay is described as follows: area under concentration-response curve (viability) (AUC (a.u.)); higher = less active. The procedure, abridged:
(§1)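 Cells from three adrenocortical carcinoma lines were seeded at 500–1,000 cells/well in 5 µL medium in 1,536-well plates. Each library compound was added as 23 nL at 11 concentrations, and after 48 h CellTiter-Glo was added for 15 minutes at room temperature before reading luminescence. Plate-wise normalisation to vehicle and empty-well controls preceded curve fitting. AC50 and area under the curve were calculated only for inhibitory or non-responding curve classes.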

Assay [2] has as its system CU-ACC1. Described as above. The procedure, abridged: as §1
The test system of assay [3] is CU-ACC1. The experiment in a line: AC50 viability; higher = less potent. The procedure, abridged:
as §1

Assay [4] deals with NCI-H295R. The experiment in a line: area under concentration-response curve (viability) (AUC (a.u.)); higher = less active. The procedure, abridged:
as §1

`[O-][n+]1cccc(-c2nc3c(Cl)cccc3cc2[C@@H](Nc2ncnc3cccnc23)C(F)(F)F)c1`: the “area under concentration-response curve” value was determined as 368 in assay [1] and 332 in assay [2]. The molecule also came in with an AC50 viability in assay [3] of 26.3 µM.

On to `Cc1ccc(-n2nc(C(C)(C)C)cc2NC(=O)Nc2ccc(OCCN3CCOCC3)c3ccccc23)cc1`, for which the “area under concentration-response curve” value was determined as 499 in assay [1] and 374 in assay [2]. In assay [3], this molecule displayed an AC50 viability of 29.5 µM.

Regarding `Clc1ccccc1C(c1ccccc1)(c1ccccc1)n1ccnc1`, the “area under concentration-response curve” value in assay [1] stood at 518; in assay [2], 509. Besides, the AC50 viability in assay [3] was 18.6 µM.

Regarding `N[S+](=O)([O-])c1ccc([S+](=O)([O-])Nc2cccc3c(Cl)c[nH]c23)cc1`, the “area under concentration-response curve” value in assay [1] amounted to 527; in assay [2], 404. Moreover, in assay [3], the AC50 viability came to 8.33 µM.

`CN(C)C(=O)c1ccc([S+](=O)([O-])c2ccc(NC(=O)[C@@](C)(O)C(F)(F)F)c(Cl)c2)cc1`: the “area under concentration-response curve” value in assay [1] amounted to 640; in assay [2] it was 346. Also, in assay [3], the AC50 viability came to 5.25 µM.

Turning to `NC(=O)c1noc([C@H](CCCC2CCCCC2)CC(=O)NO)n1`, the “area under concentration-response curve” value in assay [1] is 531; in assay [2] it was 446. This molecule yielded an AC50 viability in assay [3] of 41.7 µM.

As for `COC1=CC=CC2=C1C(=C(/C(=O)N(C)C3=CC=C(C=C3)C(F)(F)F)C(=O)N2C)/O`, the “area under concentration-response curve” value in assay [1] stood at 187; in assay [2], 279. In assay [3], this molecule came in with an AC50 viability of 0.0525 µM.

With `Clc1ccc(C(Cn2ccnc2)OCc2ccsc2Cl)c(Cl)c1` (stereo not given), the entries for the “area under concentration-response curve” value in assay [1] and in assay [2] were 584 and 476, respectively. In assay [3], this molecule yielded an AC50 viability of 16.6 µM.

In the case of `O=C(NO)C1(C[S+](=O)([O-])c2ccc(Oc3ccc(Cl)cc3)cc2)CCOCC1`, the “area under concentration-response curve” value in assay [1] is 553; in assay [2] it was 450. The same molecule gave an AC50 viability in assay [3] of 16.6 µM.

Turning to `CCOC(=O)[C@@]1(CCCCCCOc2ccc(Cl)cc2)CO1`, the “area under concentration-response curve” value was 624 in assay [1] and 382 in assay [2]. The AC50 viability in assay [3] came out at 23.5 µM.

Take `O=C(Nc1ccc(OC(F)(F)Cl)cc1)c1cnc(N2CC[C@@H](O)C2)c(-c2ccn[nH]2)c1`: the “area under concentration-response curve” value was found to be 574 in assay [1] and 442 in assay [2]. Moreover, the AC50 viability in assay [3] was determined as 33.2 µM.

For the molecule `CC1Oc2cc(cnc2N)-c2c(nn(C)c2C#N)CN(C)C(=O)c2ccc(F)cc21` (stereo not given), the entries for the “area under concentration-response curve” value in assay [1] and in assay [2] were 485 and 463, respectively. In assay [3], this molecule registered an AC50 viability of 6.61 µM.

Regarding `FC(F)(F)c1ccc(Nc2nc3cc(Oc4ccnc(-c5ncc(C(F)(F)F)[nH]5)c4)ccc3[nH]2)cc1`, the “area under concentration-response curve” value in assay [1] came out at 603; in assay [2] it was 479. For the same molecule, the AC50 viability in assay [3] turned out to be 4.68 µM.

For `CN1CCC(CC1)=C2C3=C(C=CC=C3)\C=C/C4=C2C=CC=C4`, the “area under concentration-response curve” value in assay [1] was 480; in assay [2], 373. This molecule also showed an AC50 viability in assay [3] of 8.33 µM.

In the case of `CCC1CCCCN1C(=O)n1ncc(C(O)(c2ccccc2)c2ccccc2)n1` (stereo not given), the “area under concentration-response curve” value in assay [1] amounted to 571; in assay [2], 435. Besides, in assay [3], the AC50 viability turned out to be 18.6 µM.

On to `OC1=CC2=C(C=C1)C(=O)\C(=C(O2)\C3=CC(=C(O)C=C3)O)O`, for which the figures for the “area under concentration-response curve” value in assay [1] and in assay [2] were 548 and 451, respectively. The AC50 viability in assay [3] worked out at 14.8 µM.

Consider `CN1CCc2c(n(Cc3ccc(C(=O)NO)cc3)c3ccccc23)C1`, for which the “area under concentration-response curve” value in assay [1] was 482; in assay [2], 426. The AC50 viability in assay [3] was 29.5 µM.

Consider `O=C(NOCC(O)CO)c1cc(Br)c(F)c(F)c1Nc1ccc(I)cc1F` (stereo not given), for which the “area under concentration-response curve” value in assay [1] was 407; in assay [2] it was 416. In assay [3], this molecule yielded an AC50 viability of 1.18 µM.

With `C[C@@H]1CC2C3C[C@H](F)C\4=C\C(=O)\C=C/[C@]4(C)[C@@]3(F)[C@@H](O)C[C@]2(C)[C@@]1(OC(=O)C5=CC=CO5)C(=O)SCF` (stereo not given in full), the “area under concentration-response curve” value was 592 in assay [1] and 468 in assay [2]. Moreover, the AC50 viability in assay [3] came out at 41.7 µM.

With `CCOC(=O)c1c(CSc2ccccc2)n(C)c2cc(Br)c(O)c(CN(C)C)c12`, the “area under concentration-response curve” value was determined as 600 in assay [1] and 476 in assay [2]. For the same molecule, the AC50 viability in assay [3] amounted to 37.2 µM.

With `CN(C)Cc1ccc(-c2nc3cccc4c3n2CCNC4=O)cc1`, the results for the “area under concentration-response curve” value in assay [1] and in assay [2] were 216 and 294, respectively. In assay [3], the AC50 viability amounted to 33.2 µM.

Consider `O=C(O)[C@H](O)[C@@H](O)[C@H](O[C@@H]1O[C@H](CO)[C@H](O)[C@H](O)[C@H]1O)[C@H](O)CO`, for which the “area under concentration-response curve” value in assay [4] came to 307; in assay [2], 342. The AC50 viability in assay [3] turned out to be 0.00118 µM.

Regarding `O=C(CCN1CCN(C(=O)OCc2cc(Cl)cc(Cl)c2)CC1)c1ccc2[nH]c(=O)oc2c1`, the “area under concentration-response curve” value in assay [1] came out at 495; in assay [2], 468. This molecule also yielded an AC50 viability in assay [3] of 23.5 µM.

In the case of `O=C(O)c1ccc(O)c2ncc(N3CCOCC3)cc12`, the “area under concentration-response curve” value was found to be 525 in assay [1] and 442 in assay [2]. The AC50 viability in assay [3] came to 23.5 µM.

Take `O=C(NO)c1cnc(NC2(c3cccc(F)c3)CCCCC2)nc1`: the “area under concentration-response curve” value in assay [4] was found to be 538; in assay [2], 474. The AC50 viability in assay [3] was found to be 20.9 µM.

On to `CO[C@H]1C[C@@H]2CC[C@@H](C)[C@@](O)(O2)C(=O)C(=O)N2CCCC[C@H]2C(=O)O[C@H]([C@H](C)C[C@@H]2CC[C@@H](OCCO)[C@H](OC)C2)CC(=O)[C@H](C)/C=C(/C)[C@@H](O)[C@@H](OC)C(=O)[C@H](C)C[C@H](C)\C=C/C=C\C=C/1C`, for which the “area under concentration-response curve” value in assay [1] stood at 439; in assay [2], 421. In assay [3], this molecule had an AC50 viability of 18.6 µM.

Consider `CCc1ccc(/C=C2/SC(=S)NC2=O)cc1`, for which the “area under concentration-response curve” value in assay [4] came out at 394; in assay [2] it was 396. The molecule further came in with an AC50 viability in assay [3] of 2.63 µM.

As to `O=C(O)CC[C@H]1CC[C@@](c2cc(F)ccc2F)([S+](=O)([O-])c2ccc(Cl)cc2)CC1`, the “area under concentration-response curve” value in assay [4] worked out at 255; in assay [2] it was 359. The molecule also returned an AC50 viability in assay [3] of 0.00105 µM.

Regarding `c1nc2c(NC3CCCCC3)nc(Nc3ccc(N4CCOCC4)cc3)nc2[nH]1`, the “area under concentration-response curve” value in assay [4] was found to be 274; in assay [2], 283. For the same molecule, in assay [3], the AC50 viability is 0.00118 µM.

Regarding `Cc1cc2c(F)c(Oc3ncnn4cc(OC[C@@H](C)O)c(C)c34)ccc2[nH]1`, the “area under concentration-response curve” value in assay [4] stood at 329; in assay [2], 317. Besides, the AC50 viability in assay [3] amounted to 0.00263 µM.
